The test system of test [1] is adult C. felis fleas. The experiment in a line: Ingestion activity against adult Ctenocephalides felis, membrane feeding, alternative method (Examples 7 and 13). On the procedure: Selected compounds of formula (I), (Ia) and (Ib) and compound “125” of WO 2021/033141 dissolved in 100% DMSO are diluted in bovine blood with sodium heparin anti-coagulant. The resulting formulation is offered via an artificial membrane feeding system to approximately 15 adult C. felis fleas previously dispensed into 24-well plates. The plates are then incubated in a double-chambered device. Visual evaluation for mortality is performed at 48 hours post-treatment. Compound efficacy at a given dose is expressed as percentage mortality and determined by normalization to positive and negative controls. A dose response series is implemented to determine EC50 values.
Compounds of formulae (I), (Ia) and/or (Ib) dissolved in 100% DMSO are diluted in bovine blood with sodium heparin anti-coagulant. The resulting formulation is offered via an artificial membrane feeding system to approximately 15 adult C. felis fleas previously dispensed into 24-well plates. The plates are then incubated in a double-chambered device. Visual evaluation for mortality is performed at 48 hours post-treatment. Compound efficacy at a given dose is expressed as percentage mortality and determined by normalization to positive and negative controls. A dose response series is implemented to determine EC50 values.

Test [2] concerns Myzus persicae. In words: Insecticidal test on Myzus persicae (Example 17). The test is classed as in vivo. Particulars: 144 h, foliar application on Chinese cabbage, 6 days after application, read-out: control efficacy level (control rate). An excerpt: The compounds of formula (I), (Ia) and/or (Ib) of the present invention or salts thereof are separately dispersed in water and diluted to 500 ppm and 50 ppm. Chinese cabbage plants are planted in plastic pots (diameter: 8 cm, height: 8 cm). Aphids (Myzus persicae) are propagated on the plants and then the number of surviving aphids is counted. The dispersion is applied to the foliage of the potted plants. After the plants are air dried, these are kept in a greenhouse. 6 days after the application, the number of the alive insects is counted on the plants. The control rate is calculated according to the following formula and the control efficacy is evaluated according to the following criteria. [formula] • Ta: the number of alive insects before the foliar application in a treated plot • T: the number of alive insects after the foliar application in a treated plot • Ca: the number of alive insects before the foliar application in an untreated plot • C: the number of alive insects after the foliar application in an untreated plot • A: the control rate is 100% • B: the control rate is 90 to 99% • C: the control rate is 80 to 89% • D: the control rate is 50 to 79%

Test [3] concerns Plutella xylostella. In words: Insecticidal test on Plutella xylostella (Example 15). The test is classed as in vivo. Particulars: 144 h, Chinese cabbage seedling dip, 6 days after dip treatment, read-out: activity level (corrected mortality rate). The protocol: The compounds of formula (I), (Ia) and/or (Ib) of the present invention or salts thereof are separately dispersed in water and diluted to 500 ppm and 50 ppm. Ten adults of Plutella xylostella are released onto Chinese cabbage seedlings and allowed to lay eggs thereon. 2 days after the release of the adults, the seedling is dipped in the dispersion for about 30 seconds. After air dried, the seedling is kept in a room at 25° C. 6 days after the dip treatment, the numbers of the dead and alive insects are counted. The corrected mortality rate is calculated according to the following formula and the insecticidal activity is evaluated according to the following criteria.

Test [4] has as its system Laodelphax striatellus. In words: Insecticidal test on Laodelphax striatellus (Example 16). In kind it is in vivo. Particulars: 192 h, rice seedling dip, 3rd-instar nymphs, 8 days after inoculation, read-out: activity level (corrected mortality rate). On the procedure:
The compounds of formula (I), (Ia) and/or (Ib) of the present invention or salts thereof are separately dispersed in water and diluted to 500 ppm and 50 ppm. Rice plant seedlings are dipped in the dispersion for about 30 seconds. After air dried, the seedlings are put into a separate glass test tube and inoculated with ten 3rd-instar nymphs of Laodelphax striatellus and then the glass test tube is kept in a room at 25° C. 8 days after the inoculation, the numbers of the dead and alive insects are counted. The corrected mortality rate is calculated according to the following formula and the insecticidal activity is evaluated according to the following criteria.

Test [5] deals with adult C. felis fleas. In words: Ingestion activity against adult Ctenocephalides felis, membrane feeding, motility (Example 6). The conditions noted are these: 48 h, bovine blood via artificial membrane, 48h post treatment, read-out: EC50 (ingestion activity, % motility reduction). On the procedure:
Compounds of formulae (I), (Ia) and/or (Ib) dissolved in 100% DMSO are added to bovine blood and offered via an artificial membrane feeding system to adult C. felis fleas. The motility of fleas is then visually inspected 48h post treatment. Efficacy is expressed in % motility reduction compared to controls containing blood treated with DMSO only. A dose response series is implemented to determine EC50 values.

The mark [6] stands for this setting: alternative method according to Example 7, mortality at 48 hours post-treatment, read-out: C. felis membrane feeding (ingestion/blood feeding) activity EC50.
[7] abbreviates: Ctenocephalides felis, adult C. felis, bovine blood with sodium heparin, membrane feeding, 48 hours post-treatment, read-out: EC50 (ingestion activity, percentage mortality, alternative method).
Setting [8] is: Ctenocephalides felis, alternative method according to Example 7, mortality at 48 hours post-treatment, read-out: C. felis membrane feeding (ingestion/blood feeding) activity EC50.

SMILES strings stand for the structures.

Turning to `CC[SH](=N)(O)c1cc(-c2noc(C3CC3)n2)cnc1-c1nc2cc(C(F)(F)C(F)(F)F)nnc2n1C` [Compound 8a], in test [1] (setting [6]), the EC50 came to 482 nM.

Broadly, the mortality is the share of the test organisms that died. As to `CCS(=N)(=O)c1cc(-c2noc(C3CC3)n2)cnc1-c1nc2cc(C(F)(F)C3CC3)nnc2n1C` (centres unmarked) [Compound 15], the pest or weed control at 500 ppm in test [2] is 100%. Moreover, the mortality at 500 ppm in test [3] and in test [4] was 100% throughout. In addition, the EC50 in test [1] (setting [7]) fell in the range of 1000 to 10000 nM.

On to `CC[S@@](=N)(=O)c1cc(-c2noc(C3CC3)n2)cnc1-c1nc2cc(C(F)(F)C(F)(F)F)cnc2n1C` [Compound 7b, (R)-[5-(5-cyclopropyl-1,2,4-oxadiazol-3-yl)-2-[3-methyl-6-(1,1,2,2,2-pentafluoroethyl)-3H-imidazo[4,5-b]pyridin-2-yl]pyridin-3-yl](ethyl)imino-lambda6-sulfanone], for which, in test [1] (setting [6]), the EC50 is 1350 nM.

On to `CCS(=N)(=O)c1cc(-c2noc(C3CC3)n2)cnc1-c1nc2cc(C(F)(F)C3CC3)cnc2n1C` (centres unmarked) [Compound 12], for which the pest or weed control at 500 ppm in test [2] was 100%. For the same compound, the mortality at 50 ppm in test [3] is 100%.

Take `CC[S@](=N)(=O)c1cc(-c2noc(C3CC3)n2)cnc1-c1nc2cc(C(F)(F)C(F)(F)F)cnc2n1C` [Compound 7a, (S)-[5-(5-cyclopropyl-1,2,4-oxadiazol-3-yl)-2-[3-methyl-6-(1,1,2,2,2-pentafluoroethyl)-3H-imidazo[4,5-b]pyridin-2-yl]pyridin-3-yl](ethyl)imino-lambda6-sulfanone]: the EC50 in test [1] (setting [6]) was determined as 385 nM.

Consider `CCS(=N)(=O)c1cc(-c2noc(C3(F)CC3)n2)cnc1-c1nc2cc(C(C)(F)F)cnc2n1C` (centres unmarked) [Compound 18], for which the pest or weed control at 50 ppm in test [2] is 100%. Also, the mortality at 50 ppm in test [3] and in test [4] was 100% each time.

Consider `CCS(=N)(=O)c1cc(-c2noc(C3CC3)n2)cnc1-c1nc2cc(C(C)(F)F)cnc2n1C` (centres unmarked) [Compound 10], for which, in test [2], the pest or weed control at 500 ppm was found to be 100%. Moreover, the mortality at 500 ppm in test [3] and in test [4] was 100% each time.

Consider `CCS(=N)(=O)c1cc(-c2ccc(C3(C#N)CC3)cc2)cnc1-c1nc2cc(C(C)(F)F)cn(CC(F)F)c-2c1F` (centres unmarked) [Compound 16], for which the EC50 in test [1] (setting [7]) was 1000 to 10000 nM.

Take `CCS(=N)(=O)c1cc(-c2ccc(C3(C#N)CC3)cc2)cnc1-c1nc2cc(C(F)(F)F)cn(CC(F)F)c-2c1F` (centres unmarked) [Compound 17]: the EC50 is less than 1000 nM in test [1] (setting [7]) and 330 nM in test [1] (setting [8]).

`CCS(=N)(=O)c1cc(-n2cc(C3(C#N)CC3)cn2)cnc1-c1nc2cc(C(F)(F)C(F)(F)F)nnc2n1C` (centres unmarked) [Compound 33]: the pest or weed control at 50 ppm in test [2] was determined as 100%. Besides, the mortality at 50 ppm in test [3] and in test [4] was 100% in each case. Further, the EC50 in test [1] (setting [7]) was less than 1000 nM; in test [1] (setting [8]), 437 nM; in test [5], 1000 to 10000 nM.

For the compound `CCS(=N)(=O)c1cc(-c2ccc(C3(C#N)CC3)cc2)cnc1-n1cc2cnc(C(F)(F)F)cc2n1` (centres unmarked) [Compound 35], the EC50 in test [1] (setting [7]) was less than 1000 nM; in test [1] (setting [8]), 771 nM; in test [5], 1000 to 10000 nM.

For the compound `CCS(=N)(=O)c1cc(-c2noc(C3CC3)n2)cnc1-c1nc2cc(C(C)(F)F)nnc2n1C` (centres unmarked) [Compound 13], the pest or weed control at 50 ppm in test [2] stood at 100%. The mortality at 50 ppm in test [3] and in test [4] was 100% in each case. For the same compound, the figures for the EC50 in test [1] (setting [7]) and in test [5] were 1000 to 10000 nM and less than 1000 nM, respectively.

Values taken from patent US20240336615A1, “CYCLOPROPYL-(HETERO)ARYL-SUBSTITUTED ETHYL-SULFOXIME-PYRIDINE DERIVATIVES” (Boehringer Ingelheim Vetmedica GmbH, priority 2023, published 2024).
